Measurements published in ChEMBL document CHEMBL3885861, “Open TG-GATES”.

Species on record: Rattus norvegicus
Test: Open TG-GATES - Regimen: Single
Type: toxicity, organism-based, Sprague-Dawley
Parameters: regimen Single, gender Male, age 6 weeks
Details: in vivo, po, 0 mg/kg, route gavage, dose level Control; for APTT / Bas / Eos / Fbg / Hb / Ht / Lym / MCH / MCHC / MCV / Mono / Neu / PT / Plat / RBC / Ret / WBC: tissue Blood; for KIDNEY_L / KIDNEY_R / KIDNEY_TOTAL: tissue Kidney; for LIVER: tissue Liver; for A/G / ALP / ALT / AST / BUN / CRE / Ca / Cl / DBIL / GLC / IP / K / LDH / Na / PL / RALB / TBIL / TC / TG / TP / gamma-GTP: tissue Plasma

With Cc1cccc(C)c1OCC(C)N (configuration not stated) [MEXILETINE] the TERMINAL_BW (3 h) was 222.3 g, the APTT (3 h) was 22.2 s and the Bas (3 h) was 0%. It also gave an Eos (3 h) of 0.8%, a Fbg (3 h) of 310.6 mg/dL and a Hb (3 h) of 12.8 g/dL. The Ht (3 h) was 39.4%, the Lym (3 h) was 80.6% and the MCH (3 h) was 21 pg. It also gave an MCHC (3 h) of 32.4%, an MCV (3 h) of 64.8 fL and a Mono (3 h) of 1.8%. For the same compound, the Neu (3 h) was 16.2%, the PT (3 h) was 16.1 s and the Plat (3 h) was 107.7 x10_4/uL. For the same compound, the RBC (3 h) was 608.6 x10_4/ul, the Ret (3 h) was 8.8% and the WBC (3 h) was 96.5 x10_2/uL. It also gave a KIDNEY_L (3 h) of 0.9 g, a KIDNEY_R (3 h) of 0.9 g and a KIDNEY_TOTAL (3 h) of 1.9 g. It also gave an LIVER (3 h) of 10.2 g, an A/G (3 h) of 1.2 and an ALP (3 h) of 1498 IU/L. It also gave an ALT (3 h) of 45.2 IU/L, an AST (3 h) of 77.4 IU/L and a BUN (3 h) of 13.6 mg/dL. For the same compound, the CRE (3 h) was 0.2 mg/dL, the Ca (3 h) was 10.6 mg/dL and the Cl (3 h) was 107 meq/L. It also gave a DBIL (3 h) of 0 mg/dL, a GLC (3 h) of 192 mg/dL and an IP (3 h) of 8.5 mg/dL. It also gave a K (3 h) of 4 meq/L, an LDH (3 h) of 181.2 IU/L and a Na (3 h) of 142 meq/L. The PL (3 h) was 132.4 mg/dL, the RALB (3 h) was 3 g/dL and the TBIL (3 h) was 0.016 mg/dL. For the same compound, the TC (3 h) was 77 mg/dL, the TG (3 h) was 62.8 mg/dL and the TP (3 h) was 5.5 g/dL. For the same compound, the gamma-GTP (3 h) was 1.6 IU/L, the TERMINAL_BW (6 h) was 218.2 g and the APTT (6 h) was 22.4 s. For the same compound, the Bas (6 h) was 0%, the Eos (6 h) was 0.8% and the Fbg (6 h) was 305.2 mg/dL. The Hb (6 h) was 12.9 g/dL, the Ht (6 h) was 39.5% and the Lym (6 h) was 78.4%. The MCH (6 h) was 20.6 pg, the MCHC (6 h) was 32.7% and the MCV (6 h) was 63.1 fL. For the same compound, the Mono (6 h) was 2.8%, the Neu (6 h) was 17.2% and the PT (6 h) was 16 s. For the same compound, the Plat (6 h) was 113.7 x10_4/uL, the RBC (6 h) was 627.6 x10_4/ul and the Ret (6 h) was 7.8%. It also gave a WBC (6 h) of 112.2 x10_2/uL, a KIDNEY_L (6 h) of 1 g and a KIDNEY_R (6 h) of 1 g. For the same compound, the KIDNEY_TOTAL (6 h) was 2 g, the LIVER (6 h) was 9.4 g and the A/G (6 h) was 1.3. It also gave an ALP (6 h) of 1119.6 IU/L, an ALT (6 h) of 37.4 IU/L and an AST (6 h) of 70.2 IU/L. The BUN (6 h) was 10.4 mg/dL, the CRE (6 h) was 0.2 mg/dL and the Ca (6 h) was 10.5 mg/dL. The Cl (6 h) was 105.2 meq/L, the DBIL (6 h) was 0 mg/dL and the GLC (6 h) was 192.4 mg/dL. It also gave an IP (6 h) of 9.2 mg/dL, a K (6 h) of 4.2 meq/L and an LDH (6 h) of 187.6 IU/L. The Na (6 h) was 140.6 meq/L, the PL (6 h) was 125 mg/dL and the RALB (6 h) was 3 g/dL. It also gave a TBIL (6 h) of 0.028 mg/dL, a TC (6 h) of 72 mg/dL and a TG (6 h) of 66.2 mg/dL. It also gave a TP (6 h) of 5.4 g/dL, a gamma-GTP (6 h) of 1.4 IU/L and a TERMINAL_BW (9 h) of 213.9 g. It also gave an APTT (9 h) of 22.8 s, a Bas (9 h) of 0% and an Eos (9 h) of 0.8%. It also gave a Fbg (9 h) of 311 mg/dL, a Hb (9 h) of 12.9 g/dL and a Ht (9 h) of 40.1%. The Lym (9 h) was 77.2%, the MCH (9 h) was 20.7 pg and the MCHC (9 h) was 32.2%. It also gave an MCV (9 h) of 64.1 fL, a Mono (9 h) of 2.4% and a Neu (9 h) of 19.6%. The PT (9 h) was 16.2 s, the Plat (9 h) was 105.6 x10_4/uL and the RBC (9 h) was 625.4 x10_4/ul. The Ret (9 h) was 8%, the WBC (9 h) was 86.8 x10_2/uL and the KIDNEY_L (9 h) was 0.9 g. The KIDNEY_R (9 h) was 0.9 g, the KIDNEY_TOTAL (9 h) was 1.8 g and the LIVER (9 h) was 8.7 g. For the same compound, the A/G (9 h) was 1.3, the ALP (9 h) was 1333.8 IU/L and the ALT (9 h) was 35.6 IU/L. It also gave an AST (9 h) of 66.2 IU/L, a BUN (9 h) of 12.2 mg/dL and a CRE (9 h) of 0.2 mg/dL. It also gave a Ca (9 h) of 10.5 mg/dL, a Cl (9 h) of 105.2 meq/L and a DBIL (9 h) of 0 mg/dL. It also gave a GLC (9 h) of 188.8 mg/dL, an IP (9 h) of 9.4 mg/dL and a K (9 h) of 4.2 meq/L. It also gave an LDH (9 h) of 133.6 IU/L, a Na (9 h) of 141.6 meq/L and a PL (9 h) of 122 mg/dL. For the same compound, the RALB (9 h) was 3 g/dL, the TBIL (9 h) was 0.02 mg/dL and the TC (9 h) was 66.2 mg/dL. The TG (9 h) was 53.2 mg/dL, the TP (9 h) was 5.5 g/dL and the gamma-GTP (9 h) was 1 IU/L. It also gave a TERMINAL_BW (24 h) of 223.6 g, an APTT (24 h) of 20.9 s and a Bas (24 h) of 0%. The Eos (24 h) was 1%, the Fbg (24 h) was 304 mg/dL and the Hb (24 h) was 13 g/dL. For the same compound, the Ht (24 h) was 40.2%, the Lym (24 h) was 78.4% and the MCH (24 h) was 20.6 pg. It also gave an MCHC (24 h) of 32.3%, an MCV (24 h) of 63.6 fL and a Mono (24 h) of 2%. For the same compound, the Neu (24 h) was 17.6%, the PT (24 h) was 16.4 s and the Plat (24 h) was 128.5 x10_4/uL. The RBC (24 h) was 632.6 x10_4/ul, the Ret (24 h) was 6.7% and the WBC (24 h) was 88.8 x10_2/uL. It also gave a KIDNEY_L (24 h) of 1 g, a KIDNEY_R (24 h) of 1 g and a KIDNEY_TOTAL (24 h) of 1.9 g. It also gave an LIVER (24 h) of 9.9 g, an A/G (24 h) of 1.3 and an ALP (24 h) of 1840.4 IU/L. For the same compound, the ALT (24 h) was 49.8 IU/L, the AST (24 h) was 73.8 IU/L and the BUN (24 h) was 15.6 mg/dL. It also gave a CRE (24 h) of 0.2 mg/dL, a Ca (24 h) of 10.7 mg/dL and a Cl (24 h) of 107 meq/L. The DBIL (24 h) was 0 mg/dL, the GLC (24 h) was 196.4 mg/dL and the IP (24 h) was 7.6 mg/dL. The K (24 h) was 4 meq/L, the LDH (24 h) was 166 IU/L and the Na (24 h) was 143.2 meq/L. For the same compound, the PL (24 h) was 130.6 mg/dL, the RALB (24 h) was 3.1 g/dL and the TBIL (24 h) was 0.008 mg/dL. The TC (24 h) was 70 mg/dL, the TG (24 h) was 74.6 mg/dL and the TP (24 h) was 5.6 g/dL. For the same compound, the gamma-GTP (24 h) was 1.8 IU/L.
